Measured values published in patent US7932286B2, “Method for treating colonic viscerosensitivity and spasticity” (priority 2007, dated 2011).

System: colonic viscerosensitivity and spasticity induced by colonoscopy
Experiment: Video-endoscopic colonoscopy after oral pre-treatment, individual case studies
Format: in vivo, human
Text: The patient had received a complete colonoscopy three years before in a hospital based gastro-intestinal unit, and this experience left them very anxious concerning the need for a repeat examination. The occurrence of pain during the procedure as well as the discomfort lasting few hours following the colonoscopic examination, despite parenteral sedation/analgesia, was still vivid in their memories. They wanted to negotiate an alternate diagnostic procedure such as a air-contrast barium enema. […] They were instructed to completed this pharmacological preparation by taking two Fleet® Phospho-soda 45 ml vials with five or six glasses of liquid one in the evening before the examination, and one in the morning two hours before the examination to clean and prepare “clean-rep” the colon. They presented alone to the endoscopy clinic and they were appropriately positioned on their left side on the examination table, and the video-endoscopic colonoscopy was initiated by the endoscopist. The colonoscopy was easily completed to the caecum in 14 minutes. […] The whole colonic examination including the accurate examination of the colon upon retraction of the instrument lasted a total of 25 minutes and was negative for mucosal lesions and for endoluminal polypoid formations. The patient then dressed up and walked to the endoscopist's office to receive the good results of the examination. They were asked several questions on their experience of the new pharmacological preparation as compared to their previous hospital-based unit experience with parenteral sedation/analgesia. […] The endoscopist and the assistant nurse were very satisfied with the ease and shortness of the completed procedure.
As part of a complete investigation, a colonoscopy was planned. They were prescribed Trimebutine maleate 200 mg tablets to be taken orally three times a day for three days before the scheduled examination. They were instructed to complete the pharmacological preparation by taking two Fleet® Phospho-soda 45 ml vials with five or six glasses of liquid, one in the evening before the examination, and one in the morning two hours before the examination to clean and prepare “clean-prep” the colon. They presented to the endoscopy unit with doubts that they could sustain the planned examination without any other drug preparation, having seen in their career many patients having barely tolerated this procedure of full colonoscopy, even after having received before the examination meperidine and midazolam intravenously. They also remembered the “stress experienced by the endoscopist and the assistant nurse working at completing the examination rapidly and successfully reaching the caecum in these patients”. Nonetheless, they consented at trying to receive the examination without further pharmacological preparation, with the promise by the physician that the procedure would be interrupted at their request in the case that they could not tolerate the pain or discomfort. After appropriately positioning the patient on their left side, the instrument was delicately introduced in their rectum, and the progression of the instrument gently initiated. They asked to have their head elevated with a pillow so they could see the video monitor and watch the video-endoscopic recording of their examination. […] The physician and the nurse were surprised by the fact that such a patient presenting a clinical irritable bowel syndrome could experience so little discomfort during the examination since these patients characteristically are chronically suffering from a very low threshold of viscerosentivity with solid or gaseous distension of the colon. After the procedure, they commented that they would accept to repeat the examination any time, and would not hesitate to recommend this pharmacological preparation to patients needing complete colonoscopy, and would be ready to reassure them that there were no more reasons to fear to receive such examination.

[1] = Example 1, patient, 200 mg tablets orally three times a day for three days before examination
[2] = Example 2, patient with clinical irritable bowel syndrome, 200 mg tablets orally three times a day for three days

## Trimebutine maleate
Example 1, patient
  recovery after the procedure: capable to drive home by themself without any assistance or recovery time
[1]
  colonic spastic contractions during colonoscopy: No colonic spastic contractions occurred
  duration of whole colonic examination including retraction of the instrument: 25 min
  pain or discomfort generated by air-distension of the colon: did not generate pain or discomfort
Example 1, patient, 200 mg tablets orally three times a day for three days before examination, no sedation
  time in which colonoscopy was completed to the caecum: 14 min
Example 1, patient, questioned after the examination
  patient-reported pain and discomfort during the procedure: did not experience any pain and very mild discomfort
[2]
  discomfort experienced by the patient during the examination: only mild but perfectly tolerable discomfort
  progression of the instrument in the patient: easy, painless
  spastic contractions during colonoscopy: No spastic contractions delayed the progression of the instrument
Example 2, patient with clinical irritable bowel syndrome, 200 mg tablets orally three times a day for three days before examination, no sedation
  time in which the caecum was reached: 12 min
